Data as given in patent publication US20200190062A1, “HETEROCYCLIC COMPOUND AND PHARMACEUTICAL COMPOSITION COMPRISING SAME” (BEYONDBIO INC., priority 2015, published 2020).
Counter-ions that a name gives are not always drawn. Like-named read-outs stand apart in the source and are kept apart here.

Experiments:
CDK1/cyclinB = biological target: T1, CDK1/cyclinB (Homo sapiens, UniProt P06493); experiment: Inhibition of CDK enzyme activity (ADP-Glo kinase assay); format: biochemical; conditions: 10 uM ATP, histone H1 substrate
T1 construct: purchased Merck Millipore
T1 sequence (P06493 whole entry): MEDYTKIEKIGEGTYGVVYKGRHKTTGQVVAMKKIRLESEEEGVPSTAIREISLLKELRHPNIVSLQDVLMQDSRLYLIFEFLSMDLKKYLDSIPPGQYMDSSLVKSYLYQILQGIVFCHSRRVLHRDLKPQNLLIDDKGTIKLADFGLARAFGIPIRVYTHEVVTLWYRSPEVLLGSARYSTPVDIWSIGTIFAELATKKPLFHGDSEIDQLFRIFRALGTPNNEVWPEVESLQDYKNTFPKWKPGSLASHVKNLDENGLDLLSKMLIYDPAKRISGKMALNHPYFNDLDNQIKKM
T1 sequence (P14635 whole entry partner): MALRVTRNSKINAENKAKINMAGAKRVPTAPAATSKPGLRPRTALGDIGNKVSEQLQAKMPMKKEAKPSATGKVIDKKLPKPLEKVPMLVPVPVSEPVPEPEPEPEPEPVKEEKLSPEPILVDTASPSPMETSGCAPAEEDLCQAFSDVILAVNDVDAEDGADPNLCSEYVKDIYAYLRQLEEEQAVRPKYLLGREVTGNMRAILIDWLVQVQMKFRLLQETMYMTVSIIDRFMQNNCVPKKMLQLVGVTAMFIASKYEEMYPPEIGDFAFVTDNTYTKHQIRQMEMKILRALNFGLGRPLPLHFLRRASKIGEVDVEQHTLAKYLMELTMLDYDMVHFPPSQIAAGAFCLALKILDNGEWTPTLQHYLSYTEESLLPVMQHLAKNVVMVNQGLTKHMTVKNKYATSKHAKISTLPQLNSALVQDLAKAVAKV

CDK2/cyclinE = biological target: T2, CDK2/cyclinE (Homo sapiens, UniProt P24941); experiment: as above; format: biochemical; conditions: 10 uM ATP, histone H1 substrate
T2 construct: purchased Merck Millipore
Procedure, shortened: (§1)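 Kinase reactions in 50 mM Tris-HCl pH 7.5 with MgCl2, EGTA, EDTA and DTT, at 10 µM ATP. CDK2/cyclinE and CDK5/p25 were used at 10 nM and CDK6/cyclinD3 at 50 nM with 0.125 mg/ml histone H1; CDK4/cyclinD1 was used at 20 nM with 0.125 mg/ml Rb protein. After 60 min at 30 °C, ADP was read by ADP-Glo luminescence and IC50 taken from % inhibition versus no-compound control.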

CDK4/cyclinD1 = biological target: T3, CDK4/cyclinD1 (Homo sapiens, UniProt P11802); experiment: as above; format: biochemical; conditions: 10 uM ATP, Rb protein substrate; read-out: IC50 CDK4/cyclinD
T3 construct: purchased Signalchem (US)
T3 sequence (P11802 whole entry): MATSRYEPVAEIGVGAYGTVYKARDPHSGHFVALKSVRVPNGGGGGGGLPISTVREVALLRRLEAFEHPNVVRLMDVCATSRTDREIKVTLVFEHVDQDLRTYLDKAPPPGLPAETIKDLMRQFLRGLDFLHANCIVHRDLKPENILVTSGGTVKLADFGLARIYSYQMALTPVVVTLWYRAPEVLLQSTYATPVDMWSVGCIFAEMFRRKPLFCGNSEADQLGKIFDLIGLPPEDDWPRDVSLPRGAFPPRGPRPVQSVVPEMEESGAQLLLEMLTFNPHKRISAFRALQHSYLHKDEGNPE
T3 sequence (P24385 whole entry partner): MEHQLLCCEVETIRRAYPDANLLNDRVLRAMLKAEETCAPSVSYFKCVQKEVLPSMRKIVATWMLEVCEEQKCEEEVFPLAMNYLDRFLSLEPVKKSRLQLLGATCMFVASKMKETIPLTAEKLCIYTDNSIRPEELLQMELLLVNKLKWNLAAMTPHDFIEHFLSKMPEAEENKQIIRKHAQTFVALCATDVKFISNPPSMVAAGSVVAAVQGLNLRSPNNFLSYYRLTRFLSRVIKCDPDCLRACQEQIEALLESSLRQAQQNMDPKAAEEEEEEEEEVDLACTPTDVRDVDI
Procedure, shortened: as §1

CDK5/p25 = biological target: T4, CDK5/p25 (Homo sapiens, UniProt Q00535); experiment: as above; format: biochemical; conditions: 10 uM ATP, histone H1 substrate
T4 construct: purchased Merck Millipore
T4 sequence (Q00535 whole entry): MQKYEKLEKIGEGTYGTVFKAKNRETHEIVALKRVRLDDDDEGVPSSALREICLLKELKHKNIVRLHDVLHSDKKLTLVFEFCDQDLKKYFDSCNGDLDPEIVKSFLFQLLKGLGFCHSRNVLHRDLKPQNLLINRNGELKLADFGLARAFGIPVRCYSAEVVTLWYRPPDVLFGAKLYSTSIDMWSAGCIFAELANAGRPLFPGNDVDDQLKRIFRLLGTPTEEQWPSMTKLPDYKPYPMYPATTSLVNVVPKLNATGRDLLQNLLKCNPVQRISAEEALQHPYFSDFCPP
T4 sequence (Q15078 99-307 partner limits assumed): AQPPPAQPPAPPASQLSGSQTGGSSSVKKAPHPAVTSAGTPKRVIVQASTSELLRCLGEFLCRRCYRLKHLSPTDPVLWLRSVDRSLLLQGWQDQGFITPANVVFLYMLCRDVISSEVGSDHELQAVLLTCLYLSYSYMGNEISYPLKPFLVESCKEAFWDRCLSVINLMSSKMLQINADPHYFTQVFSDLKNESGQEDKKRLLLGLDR
Procedure, shortened: as §1

CDK6/cyclinD3 = biological target: T5, CDK6/cyclinD3 (Homo sapiens, UniProt Q00534); experiment: as above; format: biochemical; conditions: 10 uM ATP, histone H1 substrate; read-out: IC50 CDK6/cyclinD
T5 construct: purchased Merck Millipore
T5 sequence (Q00534 whole entry): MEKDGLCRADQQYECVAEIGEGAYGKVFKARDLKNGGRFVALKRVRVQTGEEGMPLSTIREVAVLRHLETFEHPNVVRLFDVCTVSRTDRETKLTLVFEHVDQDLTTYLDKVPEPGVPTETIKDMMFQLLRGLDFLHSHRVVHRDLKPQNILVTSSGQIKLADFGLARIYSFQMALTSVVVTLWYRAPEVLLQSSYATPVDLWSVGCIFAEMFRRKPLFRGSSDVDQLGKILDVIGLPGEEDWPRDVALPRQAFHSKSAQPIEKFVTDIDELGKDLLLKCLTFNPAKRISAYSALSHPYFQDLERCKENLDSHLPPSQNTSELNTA
T5 sequence (P30281 whole entry partner): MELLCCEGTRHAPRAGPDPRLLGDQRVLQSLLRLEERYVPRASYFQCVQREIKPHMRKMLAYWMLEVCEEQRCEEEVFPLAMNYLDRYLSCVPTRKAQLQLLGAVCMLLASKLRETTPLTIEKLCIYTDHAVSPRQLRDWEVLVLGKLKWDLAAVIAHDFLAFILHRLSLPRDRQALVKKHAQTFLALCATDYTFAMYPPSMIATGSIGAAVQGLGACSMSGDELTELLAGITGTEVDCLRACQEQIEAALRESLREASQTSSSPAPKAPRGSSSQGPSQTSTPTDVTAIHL
Procedure, shortened: as §1

[1] = Blood brain barrier permeation; format: in vivo, ICR mice; conditions: male, ICR, mouse, po; for Kp at 1 h / Kp at 4 h: brain/plasma, read-out: B/P ratio
Method: Using 9-week-old male ICR mice, the compounds obtained in the above Examples were orally administered once at a dose of 10 mg/kg or 30 mg/kg, and after 1 hr and 4 hrs, the concentrations of the compounds in the blood and brain of the mice were determined. 3 ICR mice were assigned in each group. Plasma was separated from the blood obtained after sacrificing the mice at each time, the brain of the mice was extracted, and the […] was washed with PBS, followed by pulverizing the brain tissue. The blood was placed in a test tube containing heparin to prevent coagulation and then was centrifuged at 12,000 rpm at 4° C. for 3 min to give a supernatant from which plasma was collected. Brain tissue was weighed, and the brain was pulverized using Dounce's homogenizer after adding 3 times as much volume of PBS as the brain weight. Each of the obtained analytical samples was quantitatively analyzed using a tandem liquid chromatography-mass spectrometer (Tandem LC/MS/MS, API3000 & Agilent 1100 series). Brain permeability of a compound is expressed as a value obtained by dividing the concentration of the compound in the brain by the concentration of the compound in the plasma (B/P ratio), and when the B/P ratio is greater than 1, it means that the concentration in the brain is higher than the one in the blood.

Tau protein = experiment: Inhibition of Tau phosphorylation (Western blot, pSer202) in SH-SY5Y cells; format: cell-based; conditions: 4 hrs
Method: SH-SY5Y cells expressing Tau protein were cultured in DMEM containing 10% FBS. 2.5×10^6 cells were placed in a 6-well plate and incubated at 5% CO2 and 37° C. for 16 hrs. The compounds obtained in the above Examples serially diluted ⅓ from 3 uM to 0.5 nM or the compounds in a concentration of 0.3, 0.1, 0.03, 0.01, 0.003 uM were treated for 4 hrs in DMEM containing 5% FBS. After 4 hrs, the culture solution was removed, washed with PBS, and cells were lysed by adding 100 ul of lysis buffer. The lysis buffer consisted of 50 mM Tris-HCl (pH 7.5), 150 mM NaCl, 5 mM EDT, 1 mM EGTA, 50 mM NaF, 1 mM PMSF, 1 mM Na3VO4, 2.5 mM DTT, 1% Triton X-100, and Protease inhibitor (Pierce). The lysed cells were centrifuged at 10,000 rpm and 4° C. for 10 min and the proteins in the supernatant were quantified. 25 ug of the proteins were electrophoresed on a SDS-PAGE gel and transferred to PVDF (Amersharm) membrane. The PVDF membrane was immersed in T-PBS containing 10% skim milk and shaken for 1 hr at room temperature. The primary antibody, Phosph-Tau[pSer202] (Abcam), diluted 1:1500 in T-PBS solution containing 5% skim milk was reacted with the membrane at room temperature for 2 hrs. The membrane was washed with T-PBS. The secondary antibody, Anti-rabbit IgG HRP, diluted 1:5000 was added to the membrane, reacted at room temperature for 1 hr, and washed.

[2] = brain, 30 mg/kg, oral once 30 mg/kg, read-out: Concentration in the brain
[3] = plasma, 30 mg/kg, oral once 30 mg/kg, read-out: Concentration in the plasma
[4] = brain, 10 mg/kg, oral once 10 mg/kg, read-out: Concentration in the brain
[5] = plasma, 10 mg/kg, oral once 10 mg/kg, read-out: Concentration in the plasma

Row | Compound | IC50 (CDK1/cyclinB) | IC50 (CDK2/cyclinE) | IC50 (CDK4/cyclinD1) | IC50 (CDK5/p25) | IC50 (CDK6/cyclinD3) | concentration at 1 h [1, 2] | concentration at 4 h [1, 2] | Kp at 1 h ([1]; 30 mg/kg, oral once 30 mg/kg) | Kp at 4 h ([1]; 30 mg/kg, oral once 30 mg/kg) | concentration at 1 h [1, 3] | concentration at 4 h [1, 3] | Phosphorylation (%) of Tau (Tau protein; 0.012 uM) | Phosphorylation (%) of Tau (Tau protein; 0.037 uM) | Phosphorylation (%) of Tau (Tau protein; 0.11 uM) | Phosphorylation (%) of Tau (Tau protein; 0.33 uM) | Phosphorylation (%) of Tau (Tau protein; 1 uM) | Phosphorylation (%) of Tau (Tau protein; 3 uM) | concentration at 1 h [1, 4] | concentration at 4 h [1, 4] | Kp at 1 h ([1]; 10 mg/kg, oral once 10 mg/kg) | other results
1 | Nc1nccc(-c2nc(-c3ccnc(N)c3F)ccc2O)n1 [Example 8] | 2.1 nM | 2.1 nM | 108 nM | 0.22 nM | 47 nM | 144 ng/g | 70.9 ng/g | 1.53 | 2.41 | 94.3 ng/mL | 29.4 ng/mL | 0% | 0% | 0% | – | – | – | – | – | – | Phosphorylation (%) of Tau (Tau protein; 0.0005 uM): 40%; Phosphorylation (%) of Tau (Tau protein; 0.0014 uM): 43%; Phosphorylation (%) of Tau (Tau protein; 0.0041 uM): 23%
2 | Nc1cc(-c2ccc(O)c(-c3ccnc(N)n3)n2)ccn1 [Example 10, 2′-amino-6-(2-aminopyrimidin-4-yl)-[2,4′-bipyridin]-5-ol] | 3.6 nM | 2.6 nM | 203 nM | 1.2 nM | > 200 nM | 129 ng/g | 23.2 ng/g | 1.56 | 2.78 | 82.6 ng/mL | 8.3 ng/mL | 101% | 84% | 60% | 39% | 11% | 13% | – | – | – | –
3 | Nc1nccc(-c2ccc(O)c(-c3ccnc(N)n3)n2)n1 [Example 61, 2,6-bis(2-aminopyrimidin-4-yl)pyridin-3-ol 3hydrochloride] | 0.4 nM | 0.5 nM | – | 0.9 nM | – | 768 ng/g | 577 ng/g | 2.76 | 4.49 | 278 ng/mL | 129 ng/mL | – | – | – | – | – | – | 296 ng/g | 90.3 ng/g | 1.05 | Kp at 4 h ([1]; 10 mg/kg, oral once 10 mg/kg): 1.04; concentration at 1 h [1, 5]: 283 ng/mL; concentration at 4 h [1, 5]: 86.5 ng/mL
4 | Nc1nccc(-c2ccc(O)c(-c3ccnc(N)n3)n2)n1 [Example 1, 2,6-bis(2-aminopyrimidin-4-yl)pyridin-3-ol] | 1.5 nM | 1.5 nM | 855 nM | 2.4 nM | > 200 nM | – | – | – | – | – | – | 88% | 92% | 51% | 28% | 30% | 25% | – | – | – | –
5 | Cc1cc(-c2nc(-c3ccnc(N)c3F)ccc2O)nc(N)n1 [Example 71, 2′-amino-6-(2-amino-6-methylpyrimidin-4-yl)-3′-fluoro-[2,4′-bipyridin]-5-ol 3hydrochloride] | 0.2 nM | 0.3 nM | 125 nM | 0.3 nM | 29.8 nM | – | – | – | – | – | – | – | – | – | – | – | – | 3120 ng/g | 165 ng/g | 2.26 | Kp at 4 h ([1]; 10 mg/kg, oral once 10 mg/kg): 3.18; concentration at 1 h [1, 5]: 1380 ng/mL; concentration at 4 h [1, 5]: 52.1 ng/mL; Phosphorylation (%) of Tau (Tau protein; 0.003 uM): 110%; Phosphorylation (%) of Tau (Tau protein; 0.01 uM): 101%; Phosphorylation (%) of Tau (Tau protein; 0.03 uM): 35%; Phosphorylation (%) of Tau (Tau protein; 0.1 uM): 26%
